melting point [°C] | Compound
94 | O=CNc1nc(SCc2ccccc2)nn1-c1ccccc1
99 to 100 | NC(=O)CCN1CC(O)CC1=O (centres undefined)
177 to 178 | Cc1nc(-c2ccccc2)nc(-c2cccc([N+](=O)[O-])c2)c1CO
134 to 138 | COc1ccccc1N1CCN(CCCNC(=O)c2cccc3c(=O)c(C)c(-c4cccc5ccccc45)oc23)CC1
102 | CCOCC1=NC(=Cc2cccs2)C(=O)O1
178 | CN(Cc1ccc(CCn2cnc3cc(-c4ccc(Cl)cc4)sc3c2=O)cc1)C(=O)C1CC1
245 to 247 | COc1ccc(-c2ccc3nc(NC(=O)c4ccc(C(C)(C)C)cc4)cn3c2)cn1
213 to 214 | N#CCNC(=O)c1nn(C2CCCCO2)cc1NC(=O)c1ccccn1 (centres undefined)
> 300 | CCCC(CCNC(=O)C(C#N)=Cc1cc(O)c(O)c(O)c1)NC(=O)C(C#N)=Cc1cc(O)c(O)c(O)c1 (centres undefined)
311 to 312 | O=C1N=C(N2CCCCC2)SC1=Cc1cccc(-c2ccc(O)c(C34CC5CC(CC(C5)C3)C4)c2)c1
131 to 133 | O=S(=O)(NCCCCOc1ccc(-n2ccnc2)cc1)c1cccc2cccnc12
89 to 91 | COC(=O)c1ccc(C=CC(=O)c2ccc3c(c2)C(C)(C)CCC3(C)C)cc1
80.1 | CC(C)Cc1cccc(-c2nc(C(C)C)n(C)n2)n1
146 | Cc1cc(-n2cncn2)c2cccc(OCc3c(Cl)ccc(S(=O)(=O)N4CCC[C@H]4C(=O)O)c3Cl)c2n1
143 to 147 | Cc1cccc(C=NNc2nc(OCCc3ccccn3)nc(N3CCOCC3)n2)c1
118 to 120 | CCOP(=O)(OCC)C(P(=O)(OCC)OCC)S(=O)(=O)c1cc(C(C)(C)C)c(O)c(C(C)(C)C)c1
183 to 185 | Cn1c(COc2cccc([N+](=O)[O-])c2)nc2ccccc21

The remaining lines, values behind:

Compound | melting point [°C]
CCCCOc1cc(CC(=O)O)n(Cc2ccc(Cl)cc2Cl)n1 | 105 to 108
CCCc1cc(CO)cc(=O)[nH]1 | 167
N#CC(C(=O)C(F)(F)F)c1cc(Cl)cc(Cl)c1Cl (centres undefined) | 160 to 163
CC(C)n1nc(-c2c(OCC(=O)N(C)C)nc(N)nc2-c2ccccc2)ccc1=O | 133 to 136
CCS(=O)(=O)c1ccc(C(CC2CCCC2)C(=O)O)cc1 (centres undefined) | 137 to 138
Cc1ccc(C)n1-c1ccc(Br)cn1 | 69
C=CCOc1ccc2ccc(OCC(=O)OC)cc2c1 | 69 to 70
Oc1cccc2c1ccn2CCOCCC(c1ccccc1)c1ccccc1 | 107 to 109
O=S(=O)(Nc1cccc(Br)c1)c1cc(S(=O)(=O)Nc2cccc(Br)c2)c2ccccc2c1 | 183 to 186
CCOCOC1CCC2(C)C(=CCC3C2CCC2(C)C3CC3OC4(CCC(C)CO4)C(C)C32)C1 (centres undefined) | 125 to 127
CNC(=O)c1cc(-c2ccc(OC)cc2)nn(Cc2ccc(Cl)cc2Cl)c1=O | 154 to 156
O=C(Nc1ccccc1)N1CC(Oc2cccc(C(F)(F)F)c2)C1 | 137 to 138
CCCOc1ccc(S(=O)(=O)N2CCN(CC)CC2)cc1-c1nc2cc3ncn(Cc4ccc(F)cc4)c3cc2c(=O)[nH]1 | 155 to 158
CN1C(=O)CC[C@]2(C)c3ccc(CC(=O)Nc4ccccc4)cc3CC[C@@H]12 | 192 to 195
C=C1CC(C(=O)O)NC(C(=O)O)C1 (centres undefined) | > 250
CCCCCCCCCc1ccc(C(CCCCC(=O)O)SCCC(=O)O)cc1 (centres undefined) | 61 to 62
CC1(CCN2CCN(C(C)(C)C)C(=O)C2)Cn2cc([N+](=O)[O-])nc2O1 (centres undefined) | 153 to 154
Cc1[nH]cnc1CSCCN(C)C(N)=S | 149 to 151
COC(=O)c1nc(N)sc1-c1ccccc1 | 208
COC(=O)CCNc1c(C#N)cnn1-c1c(Cl)cc(C(F)(F)F)cc1Cl | 171 to 173
CCNC(=O)NC(=O)Nc1ccccc1 | 80 to 81.5
CC(C)Oc1ccccc1-c1ncc(C(=O)O)c(=O)[nH]1 | 191 to 193
